# Experimental data taken from patent US20110124666A1, “3,4-DIHYDROPYRIMIDINE TRPA1 ANTAGONISTS” (Janssen Pharmaceutica NV a corporation, priority 2008, published 2011).
# Target: T1, hTRPA1 (Homo sapiens, UniProt O75762)
# T1 construct: expressed in transfected cells
# Assay: Ca2+ fluorometry TRPA1 antagonism in hTRPA1/TREx-HEK293 cells (FDSS)
# Assay type: cell-based
# Details: 11H-dibenzo[b,e]azepine-10-carboxylic acid methyl ester as TRPA1 agonist (25 nM), hTRPA1-HEK cells, Fluo4-AM
# Source text: The Human TRPA1 gene was cloned into the pT-REx-Dest30 inducible vector and afterwards stably transfected in T-Rex^TM-293 cells (purchased from Invitrogen, Merelbeke, Belgium). This tetracyclin inducible hTRPA1 expression system was used in order to prevent Ca^2+ overload in the cultured cells due to sustained TRPA1 expression. hTRPAl/TREx-HEK293 cells (referred to as hTRPA1 cells in the following text) were maintained under standard sterile cell culture conditions.
# Binding of an agonist to the TRPA1 ion-channel activates and opens the ion-channel which causes a robust increase in intracellular Ca^2+ concentration. For detecting and measuring intracellular Ca^2+ concentration, cells were loaded with a Ca^2+-sensitive dye. Changes in fluorescence in the cell, that correspond to changes in Ca^2+ concentration in the cell, can kinetically be monitored with the FDSS instrument (Hamamatsu) and are indicative for agonism towards the TRPA1 ion channel and this can be reduced by TRPA1-receptor antagonists.
# The cells were seeded in poly-D-lysine-coated 384-well round bottom polypropylene plates (Costar Corning, Data Packaging, Cambridge Mass., USA) at 12000 cells/well. 50 ng/ml tetracycline was added to induce the hTRPA1 expression 24 h before the experiment.
# The cells were loaded with 5 mg/l Fluo4-AM (Molecular Probes, Invitrogen, Merelbeke, Belgium) dissolved in HBSS seeding medium supplemented with 0.7 g/l Probenecid (Sigma) and incubated for 1 h at 37° C. and subsequently at 20° C. for 1 to 2 h. The fluorescence was measured in the FDSS 6000 imaging based plate reader (Hamamutsu Photonics K.K., Hamamutsu City, Japan). The excitation wavelength was 488 nm and the emission wavelength 540 nm. After a control period of 12 seconds the JNJ compounds were added and the Ca^2+ signal was measured within 14 minutes after application. Finally, the control TRPA1 agonist 11H-dibenzo[b,e]azepine-10-carboxylic acid methyl ester [the synthesis of which is hereafter described as compound (D-6)] or BITC (benzylisothiocyanate, FLUKA) was added at a final concentration of 25 nM. […] The emission ratio was calculated by dividing the emission signal (Em540) by the first Em540 signal of the control period to compensate for the background fluorescence. On every 384 well plate 4 series of DMSO control experiments were performed of which 2 with and 2 without control agonist 11H-dibenzo[b,e]azepine-10-carboxylic acid methyl ester or BITC. For intracellular Ca^2+ measurements compound stock solutions (10 or 100 mM) were further diluted in DMSO in order to obtain finally 1% DMSO in the extracellular solution.
# T1 sequence (O75762 whole entry): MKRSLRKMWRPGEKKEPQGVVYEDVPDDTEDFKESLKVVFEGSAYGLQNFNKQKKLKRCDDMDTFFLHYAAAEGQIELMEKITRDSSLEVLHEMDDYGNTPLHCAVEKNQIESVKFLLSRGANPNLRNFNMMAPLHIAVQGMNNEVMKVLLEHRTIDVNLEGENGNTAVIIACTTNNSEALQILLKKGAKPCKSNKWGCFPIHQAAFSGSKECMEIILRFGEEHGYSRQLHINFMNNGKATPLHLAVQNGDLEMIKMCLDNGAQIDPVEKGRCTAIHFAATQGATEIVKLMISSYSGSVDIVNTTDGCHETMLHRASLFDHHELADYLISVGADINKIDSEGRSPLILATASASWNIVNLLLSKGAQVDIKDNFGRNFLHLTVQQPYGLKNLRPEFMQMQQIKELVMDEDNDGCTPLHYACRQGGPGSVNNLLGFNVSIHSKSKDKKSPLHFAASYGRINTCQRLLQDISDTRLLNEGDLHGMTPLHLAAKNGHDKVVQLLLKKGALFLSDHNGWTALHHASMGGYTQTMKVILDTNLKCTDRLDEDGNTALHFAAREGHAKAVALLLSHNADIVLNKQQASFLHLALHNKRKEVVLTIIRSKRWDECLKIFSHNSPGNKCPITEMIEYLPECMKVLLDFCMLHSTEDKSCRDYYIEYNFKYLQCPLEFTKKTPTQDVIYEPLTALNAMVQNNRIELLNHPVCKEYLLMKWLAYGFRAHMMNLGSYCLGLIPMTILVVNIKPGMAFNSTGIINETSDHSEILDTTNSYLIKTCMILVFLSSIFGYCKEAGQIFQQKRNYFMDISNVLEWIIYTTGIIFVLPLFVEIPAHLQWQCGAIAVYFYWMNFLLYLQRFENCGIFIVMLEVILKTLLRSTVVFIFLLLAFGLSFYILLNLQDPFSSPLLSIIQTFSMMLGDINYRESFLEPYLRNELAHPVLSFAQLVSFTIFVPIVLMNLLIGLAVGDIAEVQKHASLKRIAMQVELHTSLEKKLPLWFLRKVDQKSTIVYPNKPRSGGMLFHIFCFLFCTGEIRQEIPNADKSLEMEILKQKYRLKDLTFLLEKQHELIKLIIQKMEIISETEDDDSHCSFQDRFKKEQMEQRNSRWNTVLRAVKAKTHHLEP
row,SMILES,IC50 [nM]
1,COc1cccc([C@H]2NC(=S)NC3=C2C(=O)c2ccccc23)c1 [compound 2],~76
2,O=C1C2=C(NC(=S)NC2c2cccc(OCCCCO)c2)c2ccccc21 (stereo not shown) [compound 25],~685
3,COCCCOc1cccc([C@@H]2NC(=O)NC3=C2C(=O)c2ccccc23)c1 [compound 19],> 10000
4,COc1ccc(F)c(C2NC(=S)NC3=C2C(=O)c2ccccc23)c1 (stereo not shown) [compound 10],~365
5,COc1ccc(OC)c(C2NC(=S)NC3=C2C(=O)c2ccccc23)c1 (stereo not shown) [compound 15],> 10000
6,COc1cccc([C@@H]2NC(=S)NC3=C2C(=O)c2ccccc23)c1 [compound 3],> 10000
7,COc1cc(OC)cc(C2NC(=S)NC3=C2C(=O)c2ccccc23)c1 (stereo not shown) [compound 5],~2780
8,O=C1C2=C(NC(=S)NC2c2cccc3c2OCO3)c2ccccc21 (stereo not shown) [compound 12],~4410
9,O=C1C2=C(NC(=S)NC2c2cccc(Br)c2)c2ccccc21 (stereo not shown) [compound 11],495
10,O=C1C2=C(NC(=S)NC2c2cccc(-c3ccc(C(F)(F)F)cc3)c2)c2ccccc21 (stereo not shown) [compound 31],> 10000
11,COCCCOc1cccc([C@H]2NC(=O)NC3=C2C(=O)c2ccccc23)c1 [compound 18],1320
12,O=C1C2=C(NC(=S)NC2c2cncc(Br)c2)c2ccccc21 (stereo not shown) [compound 32],1670
13,COc1cccc(C2NC(=S)NC3=C2C(=O)c2ccccc23)c1F (stereo not shown) [compound 16],~287
14,O=C1C2=C(NC(=S)NC2c2cccc(CO)c2)c2ccccc21 (stereo not shown) [compound 14],~708
15,COCCCOc1cccc([C@@H]2NC(=S)NC3=C2C(=O)c2ccccc23)c1 [compound 30],> 10000
16,CCN(CC)CCOc1cccc(C2NC(=S)NC3=C2C(=O)c2ccccc23)c1 (stereo not shown) [compound 22],1200
17,O=C1C2=C(NC(=S)NC2c2cccc(O)c2)c2ccccc21 (stereo not shown) [compound 6],~636
18,COc1cccc(C2C3=C(NC(=S)N2C)c2ccccc2C3=O)c1 (stereo not shown) [compound 27],> 10000

# Continued, values first:
row,IC50 [nM],SMILES
1,> 10000,COc1cccc(C2NC(=S)NC3=C2C(=O)c2ccccc23)c1OC (stereo not shown) [compound 9]
2,47,COCCCOc1cccc(C2NC(=S)NC3=C2C(=O)c2ccccc23)c1 (stereo not shown) [compound 7]
3,~128,COc1cccc(C2NC(=S)NC3=C2C(=O)c2ccccc23)c1 (stereo not shown) [compound 1]
4,213,O=C1C2=C(NC(=S)NC2c2cccc(OCCO)c2)c2ccccc21 (stereo not shown) [compound 13]
5,~1060,O=C1C2=C(NC(=S)NC2c2cccc(F)c2)c2ccccc21 (stereo not shown) [compound 8]
6,4860,O=C1C2=C(NC(=S)NC2c2cccc(OCCCOc3ccc(F)cc3)c2)c2ccccc21 (stereo not shown) [compound 23]
7,557,CC(=O)OCCCCOc1cccc(C2NC(=S)NC3=C2C(=O)c2ccccc23)c1 (stereo not shown) [compound 26]
8,314,CCCCOc1cccc(C2NC(=S)NC3=C2C(=O)c2ccccc23)c1 (stereo not shown) [compound 21]
9,~6030,COc1cccc(C2NC(=O)N(Cc3ccccc3)C3=C2C(=O)c2ccccc23)c1 (stereo not shown) [compound 4]
10,~13,COCCCOc1cccc([C@H]2NC(=S)NC3=C2C(=O)c2ccccc23)c1 [compound 29]
11,~85,COc1cccc(C2NC(=S)N(C)C3=C2C(=O)c2ccccc23)c1 (stereo not shown) [compound 28]

# Test system: not given
# Assay: not given
# Details: not given
row,SMILES,melting point [°C]
1,O=C1C2=C(NC(=S)NC2c2cccc(CO)c2)c2ccccc21 (stereo not shown) [Co. No. 14],265.63
2,CN(C)CCCOc1cccc(C2NC(=S)NC3=C2C(=O)c2ccccc23)c1 (stereo not shown) [Co. No. 24],237.9
3,COCCCOc1cccc([C@H]2NC(=O)NC3=C2C(=O)c2ccccc23)c1 [Co. No. 18],206.47
4,O=C1C2=C(NC(=S)NC2c2cccc(OCCCOc3ccc(F)cc3)c2)c2ccccc21 (stereo not shown) [Co. No. 23],245.01
5,COc1cccc(C2NC(=S)NC3=C2C(=O)c2ccccc23)c1 (stereo not shown) [Co. No. 1],295.22
6,O=C1C2=C(NC(=S)NC2c2cccc(O)c2)c2ccccc21 (stereo not shown) [Co. No. 6],288.04
7,COc1cccc(C2NC(=S)NC3=C2C(=O)c2ccccc23)c1F (stereo not shown) [Co. No. 16],287.05
8,O=C1C2=C(NC(=S)NC2c2cccc(-c3ccc(C(F)(F)F)cc3)c2)c2ccccc21 (stereo not shown) [Co. No. 31],149.46
9,COc1cccc([C@H]2NC(=S)NC3=C2C(=O)c2ccccc23)c1 [Co. No. 2],252.73
10,COc1ccc(F)c(C2NC(=S)NC3=C2C(=O)c2ccccc23)c1 (stereo not shown) [Co. No. 10],289.27
11,O=C1C2=C(NC(=S)NC2c2cccc3c2OCO3)c2ccccc21 (stereo not shown) [Co. No. 12],289.34
12,COc1ccc(Oc2cccc(C3NC(=S)NC4=C3C(=O)c3ccccc34)c2)cc1 (stereo not shown) [Co. No. 20],269.04
13,CCN(CC)CCOc1cccc(C2NC(=S)NC3=C2C(=O)c2ccccc23)c1 (stereo not shown) [Co. No. 22],243.58
14,O=C1C2=C(NC(=S)NC2c2cncc(Br)c2)c2ccccc21 (stereo not shown),294.61
15,O=C1C2=C(NC(=S)NC2c2cccc(OCCO)c2)c2ccccc21 (stereo not shown) [Co. No. 13],261.08
16,CC(=O)OCCCCOc1cccc(C2NC(=S)NC3=C2C(=O)c2ccccc23)c1 (stereo not shown) [Co. No. 26],199.5
17,COc1ccc(OC)c(C2NC(=S)NC3=C2C(=O)c2ccccc23)c1 (stereo not shown) [Co. No. 15],295.33

# Next, values leading:
row,melting point [°C],SMILES
1,253.6,COc1cccc([C@@H]2NC(=S)NC3=C2C(=O)c2ccccc23)c1 [Co. No. 3]
2,207.44,COCCCOc1cccc([C@@H]2NC(=O)NC3=C2C(=O)c2ccccc23)c1 [Co. No. 19]
3,224.49,O=C1C2=C(NC(=S)NC2c2cccc(OCCCCO)c2)c2ccccc21 (stereo not shown) [Co. No. 25]
4,188.65,COc1cccc(C2NC(=O)N(Cc3ccccc3)C3=C2C(=O)c2ccccc23)c1 (stereo not shown) [Co. No. 4]
5,286.94,COc1cccc(C2C3=C(NC(=S)N2C)c2ccccc2C3=O)c1 (stereo not shown) [Co. No. 27]
6,287.08,COc1cc(OC)cc(C2NC(=S)NC3=C2C(=O)c2ccccc23)c1 (stereo not shown) [Co. No. 5]
